Test system: ventilator-associated pneumonia caused by carbapenem-resistant Acinetobacter baumannii
Experiment: Clinical and microbiological outcomes of CMS nebulization
Type: in vivo
Conditions: of 20 patients
Description: Patients were treated with CMS (Xellia Pharmaceuticals ApS, Copenhagen, Denmark) at a total of 3.75 MIU (equivalent to 300 mg of CMS or 112.5 mg of CBA) administered four times a day at 6 h intervals. CMS was dissolved in 5 mL of normal saline and administered over 30 min through a jet nebulizer (Sileo 54, Macjin Medical, Seoul, Republic of Korea) connected to the ventilator circuit. Bronchoalveolar lavage fluid (BALF) was obtained by instilling 20 mL of normal saline into the right middle lobe or left lingular segmental bronchus using a bronchoscope, followed by immediate aspiration and collection into a syringe. Samples were collected immediately before the nebulization treatment and at 1, 3, and 5 h after the start of the treatment. Blood samples were collected before the nebulization treatment and at 1, 2, 3, and 5 h thereafter. Both BALF and blood samples were centrifuged at 3000× g for 10 min within 1 h of collection and the supernatant was isolated. Samples were then stored in a refrigerator at a temperature below −70 °C.
Clinical outcomes were classified as cured (resolution of symptoms/signs of pneumonia plus improvement or lack of progression in radiologic pulmonary infiltrates, and antibiotics-free), improved (significant improvement of symptoms/signs of pneumonia plus improvement or lack of progression in radiologic abnormalities, but remaining on antibiotic treatment), and failed (persistent or worsening of symptoms/signs of pneumonia, persistent or progression of radiologic pulmonary infiltrates that required additional antibiotic therapy, or death).

Substance: Colistimethate sodium [CMS]
- Clinical outcomes: failed, number of patients (nebulized CMS 3.75 MIU/day): 4
- Microbiologic outcomes: eradication, number of patients (nebulized CMS 3.75 MIU/day): 8
- Microbiologic outcomes: indeterminate, number of patients (nebulized CMS 3.75 MIU/day): 2
- Microbiologic outcomes: persistence, number of patients (nebulized CMS 3.75 MIU/day): 10
- Survival: no, number of patients (nebulized CMS 3.75 MIU/day): 15
- Survival: yes, number of patients (nebulized CMS 3.75 MIU/day): 5
- Clinical outcomes: cured, number of patients (nebulized CMS 3.75 MIU/day in four doses at 6 h intervals): 16

— PMC10967270, “Intrapulmonary and Systemic Pharmacokinetics of Colistin Following Nebulization of Low-Dose Colistimethate Sodium in Patients with Ventilator-Associated Pneumonia Caused by Carbapenem-Resistant Acinetobacter baumannii” (Antibiotics, 2024)
